Laboratory results as given in patent EP1379135B1, “FORMULATIONS COMPRISING ENTRAPPED ACTIVE INGREDIENTS AND USES THEREOF” (THE SCRIPPS RESEARCH INSTITUTE, priority 2001, dated 2002).
Entries after “also recorded” stand apart in the source; their conditions may differ.

Assays:
[1] = tested on: IL-1β induced NO production in normal human articular chondrocytes; test: IL-1β induced NO production in cultured chondrocytes (NO2 accumulation, Griess reaction); assay type: cell-based; conditions: for inhibitory activity on IL-1β induced NO production: concentration of 10 mM
Protocol: Chondrocytes were isolated from the cartilage by collagenase digestion and maintained in continuous monolayer cultures in DMEM containing 10% fetal bovine serum (FBS). Cell viability after chondrocyte isolation by collagenase digestion of normal cartilage was >95%. This level was maintained for at least 96 hrs post mortem. […] Experiments reported were performed with primary or first passage cells.
Chondrocytes were plated at 40,000 cells/well in 96-well plates in the presence of 1 % FBS. After 48 h, the medium was changed, and the cells were stimulated with IL-1β (Sigma) at a concentration of 5 ng/ml for 24 h. NO production was detected as NO2 accumulation in the culture supernatants by the Griess reaction as described elsewhere (Heval et al., (1994) Methods Enzymol. 233:250). IL-6 in the culture supernatants was measured by ELISA (R&D Systems, Minneapolis, MN) in accordance with the supplier's protocol.

[2] = tested on: TNFα induced nitric oxide (NO) production in normal human articular chondrocytes; test: TNFα induced NO production in chondrocytes; assay type: cell-based
chondrocytes = test: Cell viability, MTT assay; assay type: cell-based, human; conditions: up to 20 mM
bradykinin-induced pain = test: Bradykinin-induced pain after intra-articular administration (walking behavior pain score); assay type: in vivo, Wistar rats; conditions: intra-articular administration in rats; Figure 6
Protocol: The purpose of this study was to investigate the analgesic effects of GlcNAc with or without liposomal formulations, injected intra-articularly into the joint of Wistar rats. Pain was induced by intra-articular administration of bradykinin. Adult male Wistar rats with a weight range from 220g to 250g were obtained from Laboratory Animals Centre, National University of Singapore. Bradykinin and GlcNAc were obtained from Sigma. The liposomes were prepared as described above.
50 µl of GlcNAc solution or an GIcNAc formulated liposome suspension was injected into a rat joint cavity. An equal volume of saline was given intra-articularly as a control. 50 µl of bradykinin (60 µg/ml or at the indicated concentration) was given intra-articularly at different time points following the administration of GlcNAc.
Changes in walking behavior caused by intra-articular injection of bradykinin were used to define induced pain criteria in rats. The methods used to observe the pain response are defined in Table 2. The degree of pain was assigned a score according to the criteria in Table 3.

Compound | inhibitory activity on IL-1β induced NO production [1] | TNFα induced nitric oxide (NO) production [2] | NO production triggered by IL-1β [1] | further results
CC(=O)N[C@@H]1C(O)O[C@H](CO)[C@@H](O)[C@@H]1O (stereo partly shown) [N-acetylmannosamine] | did not inhibit | did not inhibit |  | 
CC(=O)N[C@H]1[C@H](O[C@H]2[C@H](O)[C@@H](NC(C)=O)C(O)O[C@@H]2CO)O[C@H](CO)[C@@H](O[C@@H]2O[C@H](CO)[C@@H](O)[C@H](O)[C@H]2NC(C)=O)[C@@H]1O (stereo partly shown) [trimers, N,N',N"-triacetylchitotriose] |  |  | did not express inhibitory activity | 
CC(=O)N[C@H]1[C@H](O[C@H]2[C@H](O)[C@@H](NC(C)=O)C(O)O[C@@H]2CO)O[C@H](CO)[C@@H](O)[C@@H]1O (stereo partly shown) [GlcNAc dimers, N,N'-diacetylchitobiose] |  |  | did not express inhibitory activity | 
O=C[C@H](O)[C@@H](O)[C@H](O)[C@H](O)C(=O)O [glucuronic acid] | did not inhibit | did not inhibit |  | 
N[C@H]1C(O)O[C@H](CO)[C@@H](O)[C@@H]1O (stereo partly shown) [GA, glucosamine] |  | inhibit | suppressed NO production; also recorded: measurably inhibited NO production in the lower millimolar range | concentrations not effective in inhibiting NO production [1]: below 1 mM; IC50 ([1]; Homo sapiens, Chondrocyte, IL-1β 5 ng/ml for 24 h, GlcNAc vs GA p < 0.01, read-out: IC50 (inhibition of NO production)): 14.9 ± 2.1 mM; cell viability (chondrocytes): Neither GA nor GlcNAc at dosages up to 20 mM affected cell viability
Bradykinin (RPPGFSPFR; Bradykinin; UniProt P01042 381-389, looked up) |  |  |  | pain scores, dose response (bradykinin-induced pain): Higher pain scores correlate with the amount of injected Bradykinin
CC(=O)N[C@H]1C(O)O[C@H](CO)[C@H](O)[C@@H]1O (stereo partly shown) [N-acetylgalactosamine] | demonstrated inhibitory activity |  |  | 
